Patent US9642819B2, “Low dosage serotonin 5-HT2A receptor agonist to suppress inflammation” (BOARD OF SUPERVISORS OF LOUISIANA STATE UNIVERSITY AND …, priority 2008, dated 2017)
“Also recorded” adds a separate entry of the source. Where two headings read alike, the source gives them in different places.

How the values were obtained:
5-HT2A receptor = conditions: read-out: Affinity=Ki for the receptor; cited from earlier work
[1] = system: ICAM-1, VCAM-1, and IL-6 gene expression; experiment: TNF-α induced proinflammatory gene expression (ICAM-1, VCAM-1, IL-6) by Q-RT-PCR in RASM cells; format: cell-based, rat
Description: RASM cells and treatment. Rat aortic smooth muscle (RASM) cells were isolated from adult 180 g male Sprague-Dawley rats and provided by the Cell and Molecular Core Facility in the Department of Pharmacology at LSUHSC-NO. Isolated RASM cells were grown in M-199 media containing 10% fetal bovine serum (Gibco), 100 units/mL penicillin, and 100 µg/mL streptomycin, and incubated at 37° C. in 5% CO2. Cells for all assays were used between passages 3 and 5. Prior to treatments, cells were grown in M-199 media with 10% fetal bovine serum (FBS) until 30-50% confluent. For most assays, cells were treated with (R)-DOI, or other drugs as indicated, at specific concentrations for 24 hours, followed by TNF-α (10 ng/ml) and (R)-DOI at the same pretreatment concentrations in fresh M-199 media. After another 24 hours, the cells were scraped, pelleted, and processed for RNA.
RNA isolation and Quantitative Realtime-PCR. RNA was extracted from cells using Illustra RNAspin Mini kits from GE Healthcare Life Sciences (Piscataway, N.J.) following protocols supplied by the manufacturer. First strand cDNA was generated using the ImProm-II cDNA synthesis kit (Promega) following the manufacturers protocols. Q-RT-PCR was performed using the ProbeLibrary system from Roche (Indianapolis, Ind.) in combination with the HotStart-IT probe qpcr master mix from USB Biological (Cleveland, Ohio) following manufactures protocols.
Primers were synthesized by IDT (Coralville, Iowa). ProbeLibrary probes from Roche were: U3, U74, U13, U106, U79 for 5-HT2AR, ICAM-1, VCAM-1, IL-6, and cyclophillin B, respectively. Quantitative determination of gene expression levels using a 2-step cycling protocol was performed on a MyIQ-5 Cycler (Bio-Rad, Hercules Calif.). Relative gene expression levels were calculated using the 2^[−ΔΔC(T)] method. Levels of all targets from the test samples were normalized to rat cyclophillin B expression.
To examine the effects of 5-HT2A receptor activation on TNF-α mediated proinflammatory gene expression, RASM cells were pretreated with (R)-DOI, a selective 5-HT2 receptor agonist, as described above. Dose-response curves were determined for the effects on ICAM-1, VCAM-1, and IL-6 gene expression for twelve different concentrations of (R)-DOI ranging from 0.1 pM to 100 nM, with each experiment repeated in triplicate. In FIGS. 1A-1C, the Y-axis represents a percent of TNF-α for the dose of (R)-DOI indicated on the X-axis.

[2] = system: nuclear translocation of p65; experiment: Nuclear translocation of NF-κB subunit p65 in RASM cells; format: cell-based, rat; conditions: 1 nM, 24 hours or one hour before or together with TNF-α 10 ng/ml
Description: Nuclear Translocation of p65. RASM cells were grown in M-199 medium+10% FBS until 50% confluent in 8 well chamber slides. Cells were treated with 1 nM (R)-DOI for various times as indicated, and TNF-α (10 ng/ml; tumor necrosis factor alpha) added. Thirty minutes after TNF-α treatment, cells were fixed and processed with rabbit anti p65 primary and Alexafluor 488-conjugated goat secondary antibodies as described in Zerfaoui et al. (2008) (Zerfaoui et al., 2008). Fluorescent signal was visualized on a Leica DMRA2 fluorescent microscope.
Both ICAM-1 and VCAM-1 gene transcription during inflammatory processes is regulated by the transcription factor NF-κB (Collins et al., 1995). During this process, NF-κB must be activated, and then translocated from the cytoplasm to the nucleus, where it promotes gene transcription. To investigate whether 5-HT2A receptor stimulated inhibition of NF-κB activation and translocation might be a possible mechanism for blockade of proinflammatory gene expression changes, a series of immunohistochemical experiments were conducted examining p65 translocation in RASM cells. TNF-α treatment for 30 minutes caused the expected dramatic shift in localization of the p65 subunit of NF-κB from the cytoplasm to the nucleus (FIG. 7A). […]

COc1cc(C[C@@H](C)N)c(OC)cc1I [(R)-DOI, (R)-1-(2,5-dimethoxy-4-iodophenyl)-2-aminopropane]
Ki (5-HT2A receptor): 0.5 nM
effect of pretreatment on TNF-α induced increase in proinflammatory gene expression ([1]; 1 nM prior to TNF-α 10 ng/ml): completely blocked; also recorded: completely inhibits
IC50 ([1]; RASM cells, TNF-α 10 ng/ml, ICAM-1, VCAM-1, IL-6, read-out: IC50 for inhibition of TNF-α mediated proinflammatory markers): 0.01 to 0.02 nM
IC50 ([1]; Rattus norvegicus, RASM cells, TNF-α 10 ng/ml, ICAM-1, VCAM-1, IL-6, read-out: IC50 for inhibition of TNF-α mediated proinflammatory markers): ~0.02 nM
IC50 ([1]; Rattus norvegicus, read-out: IC50 in blocking TNF-α mediated inflammation): ~0.02 nM
potency of inhibiting inflammatory marker gene expression relative to any current drug on the market ([1]; greater): at least 100 times
potency relative to the more effective current anti-inflammatory agents ([1]; more potent): ~300 fold
effect of compound alone on baseline expression of ICAM-1, VCAM-1, IL-6 ([1]; without TNF-α, 1 nM): no effect
effect on TNF-α induced p65 nuclear translocation [2]: completely blocked
